“Also recorded” adds a separate entry of the source. Where two headings read alike, the source gives them in different places.
Tests used:
[1] = Animal study: plasma concentration and AUC of cinnamic acid derivatives after intragastric BGP with or without each herbal extract; assay type: in vivo, Wistar/ST rats; conditions: rats; for plasma concentration, BGP alone versus BGP and turmeric (in words): 24 h post-ingestion; for AUC: intragastric, 0–24 h, mean ± SD, n = 8
Protocol: Wistar/ST rats (male, 7 weeks old) were purchased from Japan SLC (Shizuoka, Japan). […] The rats were quarantined and acclimatized under the above conditions for 1 week and divided into six groups (eight rats/group) according to their average body weight (240–260 g). Each test sample listed in Table 1 was dissolved in 10% propylene glycol (1 mL per rat) and administered intragastrically to the rats after an overnight fasting period with free access to water. […] The collected samples were centrifuged at 1500 g for 10 min at 4°C to separate the plasma and preserved at −80°C until further sample preparation.
Briefly, 50 μL of plasma was treated with a sulfatase/β‐glucuronidase solution (sulfatase 15 units/sample) in 100 mM sodium acetate and 5 mM ascorbate at 37°C for 1 h. Following the incubation, 850 μL of methanol was added to the samples to stop the deconjugation reaction, after which centrifugation was performed at 2000 g for 10 min at 23 ± 2°C. The supernatant was evaporated under nitrogen gas and then reconstituted in a fixed volume of methanol. The samples were filtered through a 0.22 μm PTFE membrane and then analyzed by LC–MS/MS.
Briefly, 5 μL of the sample was injected into a reversed‐phase column (Acquity UPLC BEH C18, 2.1 × 100 mm, ID. 1.7 μm; Waters, Milford, MA, USA) held at 30°C. The elution was performed using solvent A (0.1% formic acid) and solvent B (acetonitrile) at a flow rate of 0.3 mL/min. The gradient profiles were as follows: 5% B (0–2 min), 5–95% B (2–22 min), 95% B (22–25 min), and 5% B (25–30 min). Tandem mass spectrometry (MS/MS) was conducted using an ion trap mass spectrometer with a heated electrospray ion source (HESI) in both positive and negative ionization modes (scan range m/z 70–1000). […] External standard curves for cinnamic acid derivatives were generated using eight concentrations of authentic standard solutions (1, 5, 10, 50, 100, 250, 500, and 1000 ng/mL).
Quantification of cinnamic acid derivatives in the plasma was performed using the Trace Finder software version 4.1 (Thermo Scientific). The plasma concentration versus time data for the analytes obtained from each human and rat were entered into a Microsoft Excel spreadsheet. The area under the plasma concentration–time curve (AUC) was calculated using the linear trapezoidal rule, extending to the last sampling point.

[2] = molecular target: T1, multidrug resistance 1 (MDR1), P‐gp (Homo sapiens, UniProt P08183); assay: Bidirectional transport assay across MDCK II-MDR1 cell monolayer; assay type: in vitro ADME; conditions: for Net flux ratio: ER of MDCK II‐MDR1 divided by ER of parent MDCK II, >2 = transporter-mediated efflux
T1 construct: host or cells: MDCK II (Madin-Darby canine kidney) cells overexpressing MDR1
Protocol: The Madin‐Darby canine kidney (MDCK II) cell line and MDCK II cells overexpressing multidrug resistance 1 (MDR1) or breast cancer resistance protein (BCRP) were purchased from the Netherlands Cancer Institute (Amsterdam, Netherlands) and SOLVO Biotechnology (Szeged, Hungary), respectively. The cell lines were routinely cultured in Dulbecco's modified Eagle's medium (DMEM) containing 10% fetal bovine serum and 1% penicillin/streptomycin at 37°C in 5% CO2. All cells were seeded in a feeder tray at a density of 3–6 × 10^4 cells/well and grown for 3–4 days. On the day of the transport study, cell monolayers were washed with Hanks' balanced salt solution (HBSS) buffer containing 0.1% BSA (pH 7.4) and incubated at 37°C for 20 min. Artepillin C and drupanin dissolved in DMSO (10 mM) were added to the transport buffer (HBSS containing 10 mM HEPES, 0.2% glucose, 0.1% BSA, pH 7.4) to a final concentration of 10 μM and then loaded into the apical or basolateral chamber. After 120 min of incubation, 150 μL of the aliquots were collected from the donor and receiver chambers and mixed with an equal volume of 50% methanol. After centrifugation at 3000 rpm for 10 min at 4°C, the supernatants were filtered and subjected to LC–MS/MS analysis.
The in vitro samples were analyzed using HPLC (LC‐20A, Shimadzu, Kyoto, Japan) with a reversed‐phase column (Inertsil ODS‐3, 2.1 × 33 mm, ID. 3 μm, GL Sciences, Tokyo, Japan) held at 40°C. The mobile solvents used were water with 10 mM ammonium acetate (pH 4.0, A) and methanol (B) pumped at a flow rate of 0.4 mL/min. The following gradient was employed: 10%–90% B (0–0.5 min), 90% B (0.5–2.5 min), and 10% B (2.5–4 min). The eluent was monitored using a triple quadrupole mass spectrometer (API 4000, AB Sciex, Framingham, MA, USA) incorporating an electrospray ion source (ESI) operating in the multiple reaction monitoring mode. The ESI source was operated in negative ionization mode at 600°C with a spray voltage of −4.5 kV. The curtain gas (nitrogen), collision gas (nitrogen), nebulizer gas (whole air), and drying gas (whole air) were set at 40, 5, 50, and 70 psi, respectively. […] Artepillin C and drupanin were diluted in 50% methanol to concentrations of 1.6, 3.2, 8, 40, 200, 1000, and 2000 nM and were used as external standards. Sulfaphenazole (0.2 μM) was used as an internal standard.
The apparent permeability coefficients (Papp) for both directions, from the apical side to the basolateral side (A to B) and from the basolateral side to the apical side (B to A) in the cell monolayer, were calculated using the following equation: (1) Papp=dQ/dt/A×C0 where dQ/dt is the permeation rate (nmol/s), A is the membrane area (cm^2), and C0 is the initial concentration of the compound in the donor compartment (nM). The efflux ratios (ER) in the B‐to‐A and A‐to‐B directions were determined using the following equation: (2) ER=PappBtoA/PappAtoB
Net flux ratios were calculated by dividing the ER obtained from MDCK II‐MDR1 (or BCRP) cells by that obtained from the parent MDCK II cells.

[3] = BGP co-administered with gotu kola extract
[4] = BGP co-administered with turmeric extract
[5] = 10 μM, 120 min, mean ± SE, n = 2

Row | Compound | plasma concentration, BGP alone versus BGP and turmeric (in words) [1] | AUC ([1]; BGP 75 mg/kg administered alone) [ng·h/mL] | AUC ([1]; BGP 75 mg/kg co-administered with turmeric extract 250 mg/kg) [ng·h/mL] | peaks of the plasma concentration–time curve ([1]; BGP + turmeric extract) | fold increase of plasma concentration versus BGP alone ([1]; BGP + turmeric extract, 30 min after administration) [fold] | fold increase of plasma concentration versus BGP alone ([1]; BGP + turmeric extract, 6 h after administration) [fold] | change of AUC versus BGP alone (in words) ([1]; BGP co-administered with coffee fruit extract) | change of AUC versus BGP alone (in words) ([1]; BGP co-administered with ginkgo leaf extract) | change of AUC versus BGP alone (in words) [1, 3] | change of AUC versus BGP alone (in words) ([1]; BGP co-administered with soybean extract) | fold increase of AUC versus BGP administered alone [1, 4] [fold] | Papp MDCK II‐MDR1 A to B [2, 5] | Papp MDCK II‐MDR1 B to A [2, 5] | Flux ratio (MDCK II‐MDR1) (efflux ratio, ER) ([2]; 10 μM, Papp B to A / Papp A to B) | Net flux ratio [2] | AUC ([1]; male, Wistar/ST, rat, plasma, po, BGP 75 mg/kg co-administered with gotu kola extract 250 mg/kg, read-out: AUC) [ng·h/mL] | AUC ([1]; male, Wistar/ST, rat, plasma, po, BGP 75 mg/kg co-administered with turmeric extract 250 mg/kg, read-out: AUC) [ng·h/mL] | change of plasma concentration versus BGP alone (in words) ([1]; BGP + turmeric extract, at 30 min and 3 h) | fold increase of AUC versus BGP administered alone [1, 3] [fold]
1 | CC(C)=CCc1cc(/C=C/C(=O)O)cc(CC=C(C)C)c1O [artepillin C] | did not differ | 1018.0 ± 184.5 | 1377.2 ± 320.2 | two distinct peaks at 30 min and 6 h | 1.7 | 1.5 | did not significantly alter | did not significantly alter | did not significantly alter; also recorded: not changed | did not significantly alter | 1.4 | 13.3 ± 0.7 10^−6 cm/s | 11.4 ± 0.8 10^−6 cm/s | 0.9 | 1.1 |  |  |  | 
2 | CC(C)=CCc1cc(/C=C/C(=O)O)ccc1O [drupanin] | did not differ |  |  |  |  |  |  |  | tended to increase |  | 1.3 |  |  |  | 0.9 | 629 ± 167 | 627 ± 148 | significant increases or increasing trends | 1.3

— PMC11266932, “Enhanced absorption of prenylated cinnamic acid derivatives from Brazilian green propolis by turmeric in humans and rats” (Food Science & Nutrition, 2024)
